SMILES strings stand for the structures.

This assay addresses T1, SIRT1 (Homo sapiens, UniProt Q96EB6).
T1 sequence (Q96EB6 1-747): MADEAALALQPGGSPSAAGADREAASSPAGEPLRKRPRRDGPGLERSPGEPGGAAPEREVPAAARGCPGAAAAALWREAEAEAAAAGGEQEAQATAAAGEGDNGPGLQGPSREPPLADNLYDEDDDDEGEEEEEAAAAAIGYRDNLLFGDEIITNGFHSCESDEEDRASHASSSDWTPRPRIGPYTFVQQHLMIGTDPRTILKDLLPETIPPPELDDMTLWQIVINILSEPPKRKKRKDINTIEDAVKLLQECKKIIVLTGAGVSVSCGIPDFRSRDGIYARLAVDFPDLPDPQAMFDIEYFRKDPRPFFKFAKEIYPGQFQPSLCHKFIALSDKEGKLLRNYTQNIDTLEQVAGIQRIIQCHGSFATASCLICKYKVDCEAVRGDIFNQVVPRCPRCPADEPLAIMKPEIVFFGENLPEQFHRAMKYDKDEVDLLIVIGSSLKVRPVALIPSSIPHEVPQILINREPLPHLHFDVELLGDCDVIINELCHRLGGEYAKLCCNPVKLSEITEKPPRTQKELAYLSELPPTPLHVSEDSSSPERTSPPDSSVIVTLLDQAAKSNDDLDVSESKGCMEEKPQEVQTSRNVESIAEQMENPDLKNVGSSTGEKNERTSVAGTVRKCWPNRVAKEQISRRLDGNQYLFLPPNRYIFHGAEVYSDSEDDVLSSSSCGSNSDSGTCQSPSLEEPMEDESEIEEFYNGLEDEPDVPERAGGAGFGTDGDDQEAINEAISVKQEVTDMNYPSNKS
Description: Trp mass spectrometry assay of SIRT1 activation (Ac-R-H-K-K(Ac)-W-NH2 peptide). The assay is classed as biochemical. The note with it: Trp peptide 0.5 μM, 120 μM βNAD+, 10 nM SIRT1, 25 min at 25° C.; for Emax: 25 min, relative to control (100%), read-out: TRP MAX RESP (percent maximum fold activation). Summed up:
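N-terminal His-tagged human SIRT1, expressed in BL21(DE3) and purified, was incubated 25 min with an acetylated Trp peptide and NAD plus test compound at varying concentrations, then quenched with formic acid. OAADPR or deacetylated peptide was quantified by mass spectrometry versus compound-free control; EC1.5 is the concentration giving 50% activity increase, with percent maximum activation.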

For `C[C@@H](NC(=O)c1ccc2c(n1)N(C(=O)Nc1cc(NS(C)(=O)=O)ccn1)[C@H]1CCN2C1)C(F)(F)F` [Example 324, (4S)—N5-(4-(methylsulfonamido)pyridin-2-yl)-N7-((R)-1,1,1-trifluoropropan-2-yl)-3,4-dihydro-1,4-methanopyrido[2,3-b][1,4]diazepine-5,7(2H)-dicarboxamide], the Emax is under 150% and the “TRP Activity (EC1.5, concentration of test compound that results in 150% activation of SIRT1)” value is recorded as “A (EC1.5<1 μM)”.

Turning to `C[C@@H](NC(=O)c1ccc2c(n1)N(C(=O)Nc1cc(-c3cnc(C4CC4)s3)ccn1)[C@H]1CCN2C1)C(F)(F)F` [Example 325, (4S)—N5-(4-(2-cyclopropylthiazol-5-yl)pyridin-2-yl)-N7-((R)-1,1,1-trifluoropropan-2-yl)-3,4-dihydro-1,4-methanopyrido[2,3-b][1,4]diazepine-5,7(2H)-dicarboxamide], the Emax is under 150% and the “TRP Activity (EC1.5, concentration of test compound that results in 150% activation of SIRT1)” value was “A (EC1.5<1 μM)”.

The values are drawn from patent US10072011B2, “Substituted bridged urea analogs as sirtuin modulators” (GlaxoSmithKline Intellectual Property (No.2) Limited, priority 2014, dated 2018).
